{"source": "ChEMBL document CHEMBL1138495", "about": "“Inhibition of subgenomic hepatitis C virus RNA replication by acridone derivatives: identification of an NS3 helicase inhibitor” (J Med Chem, 2009)", "key": {"Vero [1]": {"tested_on": "Vero", "test": "Cytostatic activity against african green monkey Vero cells", "assay_type": "ADME, cell-based", "conditions": "chlorocebus sabaeus"}, "Hepatitis C virus": {"tested_on": "Hepatitis C virus", "test": "Antiviral activity against HCV infected in human HuH5.2 assessed as inhibition of viral RNA synthesis after 4 days by Steady-Glo-luciferase assay", "assay_type": "functional, organism-based, Hepacivirus hominis", "conditions": "Huh-5-2, 96 h"}, "[2]": {"test": "Inhibition of HCV NS3 helicase expressed in Escherichia coli", "parameters": "species or system Hepacivirus hominis"}, "Hepacivirus hominis": {"tested_on": "Hepacivirus hominis", "test": "Inhibition of HCV recombinant NS5B RNA polymerase expressed in Escherichia coli up to 100 uM by liquid scintillation counter"}, "[3]": {"test": "Cytostatic activity against human HuH5.2 after 3 days by MTS/PMS assay", "assay_type": "ADME, Huh-5-2", "conditions": "HuH5.2 cells"}, "[4]": {"test": "Inhibition of ATPase activity of HCV […] expressed in Escherichia coli", "parameters": "species or system Hepacivirus hominis"}, "Vero [5]": {"tested_on": "Vero", "test": "Cytostatic activity against african green monkey Vero cells in presence of guanosine", "assay_type": "ADME, cell-based", "conditions": "chlorocebus sabaeus"}}, "note": "pIC50: −log10 of the molar value. The source made the active and inactive calls. The calls are words filed in the database; no cut-off is given here."}
{"smiles": "COc1cc(OC)c2c(=O)c3cc(N)c(N4CCN(c5nccs5)CC4)cc3n(C)c2c1", "values": [{"measurement": "Activity", "setting": "Vero [1]", "result": "Toxic"}, {"measurement": "EC50", "setting": "Hepatitis C virus", "result": 3, "unit": "µg/mL"}, {"measurement": "IC50", "setting": "[2]", "result": 50, "unit": "µg/mL"}, {"measurement": "Activity", "setting": "Hepacivirus hominis", "result": "inactive"}, {"measurement": "CC50 at 72 h", "setting": "[3]", "result": "> 50", "unit": "µg/mL"}, {"measurement": "pIC50", "setting": "[4]", "result": "< 3.00"}, {"measurement": "Activity", "setting": "Vero [5]", "result": "Non-toxic"}]}
